Common to all, as to type: cell-based
The subject of assay [1] is Staphylococcus aureus 45 RAR 2. The experiment in a line: microbe, parasite or virus in culture. To be noted: 45RAR2. The method, then:
(§1) The antimicrobial spectra of a number of compounds of the invention were tested by the following method:
(§2) Twelve petri dishes containing successive aqueous dilutions of the test compound mixed with 10 ml of sterilized Brain Heart Infusion agar (Difco 0418-01-5) are prepared. Each plate is inoculated with 1:100 (or 1:10 for slow growing strains, primarily Micrococcus and Streptococcus) dilutions of up to 32 different microorganisms, using a Steers replicator block The inoculated plates are incubated at 35°-37° C. for 20-24 hours. In addition, a control plate, using BHI agar containing no test compound, is prepared and incubated at the beginning and end of each test.
(§3) An additional plate containing a compound having known susceptibility patterns for the organisms being tested and belonging to the same antibiotic class as the test compound is also prepared and incubated as a further control, as well as to provide test-to-test comparability. Erythromycin A was used for this purpose.
(§4) After incubation, each disk is read. The MIC is defined as the lowest concentration of drug yielding no growth, a slight haze, or sparsely isolated colonies on the inoculum spot as compared to the growth control.

Assay [2] has as its system Staphylococcus epidermidis 3519. The experiment in a line: In vitro antibacterial activity, agar dilution MIC. To be noted: S. epidermidis 3519, Brain Heart Infusion agar, 20-24 hours, read-out: MIC. The method, then: as §1, §2, §3, §4
A further assay has as its system Staphylococcus aureus 45. Put plainly: In vitro antibacterial activity, agar dilution MIC. To be noted: S. aureus 45, Brain Heart Infusion agar, 20-24 hours, read-out: MIC. The method, then:
as §1, §2, §3, §4

Assay [3] has as its system Staphylococcus aureus A5177. The experiment in a line: In vitro antibacterial activity, agar dilution MIC. To be noted: S. aureus A5177, Brain Heart Infusion agar, 20-24 hours, read-out: MIC. The method, then: as §1, §2, §3, §4
(In general: In agar dilution, organisms are placed on agar that contains the substance at set levels.)

Another assay deals with Escherichia coli SS. The experiment in a line: In vitro antibacterial activity, agar dilution MIC. To be noted: E. coli SS, Brain Heart Infusion agar, 20-24 hours, read-out: MIC. The method, then:
as §1, §2, §3, §4

Assay [4] relates to Staphylococcus aureus CMX 553. Put plainly: In vitro antibacterial activity, agar dilution MIC. To be noted: CMX553, S. aureus CMX 553, Brain Heart Infusion agar, 20-24 hours, read-out: MIC. The method, then: as §1, §2, §3, §4
For assay [5], the system named is Staphylococcus aureus CMX 686B. Put plainly: In vitro antibacterial activity, agar dilution MIC. To be noted: CMX686B. The method, then: as §1, §2, §3, §4
Assay [6] has as its system Micrococcus luteus ATCC 4698. The experiment in a line: In vitro antibacterial activity, agar dilution MIC. To be noted: ATCC4698, M. luteus ATCC 4698, Brain Heart Infusion agar, 20-24 hours, read-out: MIC. The method, then: as §1, §2, §3, §4
Assay [7] deals with Streptococcus pyogenes EES61. Put plainly: In vitro antibacterial activity, agar dilution MIC. To be noted: S. pyogenes EES61, Brain Heart Infusion agar, 20-24 hours, read-out: MIC. The method, then: as §1, §2, §3, §4
The subject of the next assay is Escherichia coli Juhl. Put plainly: In vitro antibacterial activity, agar dilution MIC. To be noted: E. coli Juhl, Brain Heart Infusion agar, 20-24 hours, read-out: MIC. The method, then: as §1, §2, §3, §4
Assay [8] has as its system Staphylococcus aureus CMX 503A. Put plainly: In vitro antibacterial activity, agar dilution MIC. To be noted: CMX503A. The method, then:
as §1, §2, §3, §4

The next assay has as its system Escherichia coli DC-2. The experiment in a line: In vitro antibacterial activity, agar dilution MIC. To be noted: DC2, E. coli DC-2, Brain Heart Infusion agar, 20-24 hours, read-out: MIC. The method, then: as §1, §2, §3, §4
Assay [9] relates to Micrococcus luteus ATCC 9341. Put plainly: In vitro antibacterial activity, agar dilution MIC. The method, then:
as §1, §2, §3, §4

In assay [10] the test system is Streptococcus pyogenes 930 CONST. The experiment in a line: In vitro antibacterial activity, agar dilution MIC. The method, then:
as §1, §2, §3, §4

For the next assay, the system named is Escherichia coli H560. The experiment in a line: In vitro antibacterial activity, agar dilution MIC. The method, then: as §1, §2, §3, §4
The test system of assay [11] is Enterococcus faecium ATCC 8043. Put plainly: In vitro antibacterial activity, agar dilution MIC. To be noted: ATCC8043, E. faecium ATCC 8043, Brain Heart Infusion agar, 20-24 hours, read-out: MIC. The method, then:
as §1, §2, §3, §4

Assay [12] deals with Streptococcus pyogenes 2548 INDUC. Put plainly: In vitro antibacterial activity, agar dilution MIC. To be noted: S. pyogenes 2548 INDUC, Brain Heart Infusion agar, 20-24 hours, read-out: MIC. The method, then:
as §1, §2, §3, §4

Assay [13] relates to Staphylococcus aureus ATCC 6538P. Put plainly: In vitro antibacterial activity, agar dilution MIC. To be noted: ATCC6538P, S. aureus ATCC 6538P, Brain Heart Infusion agar, 35-37° C., 20-24 hours, read-out: MIC. The method, then: as §1, §2, §3, §4
The subject of assay [14] is Streptococcus agalactiae CMX 508. The experiment in a line: In vitro antibacterial activity, agar dilution MIC. To be noted: CMX508, S. agalactiae CMX 508, Brain Heart Infusion agar, 20-24 hours, read-out: MIC. The method, then: as §1, §2, §3, §4
In assay [15] the test system is Streptococcus bovis A5169. Put plainly: In vitro antibacterial activity, agar dilution MIC. The method, then: as §1, §2, §3, §4

This is an account of results in patent publication US5075289A, “9-R-azacyclic erythromycin antibiotics” (priority 1988, dated 1991).

Converted amounts (≈) assume the structure as drawn. Where two headings read alike, the source gives them in different places.

In the case of `CC[C@H]1OC(=O)[C@H](C)[C@@H](O[C@H]2C[C@@](C)(OC)[C@@H](O)[C@H](C)O2)[C@H](C)[C@@H](O[C@@H]2O[C@H](C)C[C@H](N(C)C)[C@H]2O)[C@](C)(O)C[C@@H](C)[C@@H](N2CCCC2)[C@H](C)[C@@H](O)[C@]1(C)O` [Example 3], the MIC turned out to be 1.56 µg/mL (≈ 1.98 µM) in [1]; 1.56 µg/mL (≈ 1.98 µM) in [2]; 0.78 µg/mL (≈ 0.989 µM) in the assay with Staphylococcus aureus 45; 25 µg/mL (≈ 31.7 µM) in [3]; 0.39 µg/mL (≈ 0.494 µM) with Escherichia coli SS; 1.56 µg/mL (≈ 1.98 µM) in assay [4]. In addition, the MIC in [5] is 1.56 µg/mL (≈ 1.98 µM); in assay [6], 0.78 µg/mL (≈ 0.989 µM); in assay [7], 0.1 µg/mL (≈ 0.127 µM); in the assay with Escherichia coli Juhl it was above 100 µg/mL; in [8] it was 1.56 µg/mL (≈ 1.98 µM); with Escherichia coli DC-2, 100 µg/mL (≈ 127 µM). In addition, the MIC in assay [9] (ATCC9341, M. luteus ATCC 9341, Brain Heart Infusion agar, 20-24 hours, read-out: MIC) was 0.39 µg/mL (≈ 0.494 µM); in assay [10] (S. pyogenes 930 CONST, Brain Heart Infusion agar, 20-24 hours, read-out: MIC), above 100 µg/mL; with Escherichia coli H560 (E. coli H560, Brain Heart Infusion agar, 20-24 hours, read-out: MIC) it was 50 µg/mL (≈ 63.4 µM); in assay [11], 0.39 µg/mL (≈ 0.494 µM); in assay [12] it was 50 µg/mL (≈ 63.4 µM); in assay [13] it was 1.56 µg/mL (≈ 1.98 µM). Moreover, the MIC in assay [14] is 0.2 µg/mL (≈ 0.253 µM); in [15] (S. bovis A5169, Brain Heart Infusion agar, 20-24 hours, read-out: MIC), 0.1 µg/mL (≈ 0.127 µM).

On to `CC[C@H]1OC(=O)[C@H](C)[C@@H](O[C@H]2C[C@@](C)(OC)[C@@H](O)[C@H](C)O2)[C@H](C)[C@@H](O[C@@H]2O[C@H](C)C[C@H](N(C)C)[C@H]2O)[C@](C)(O)C[C@@H](C)[C@@H](N2CCN(C(C)=O)CC2)[C@H](C)[C@@H](O)[C@]1(C)O` [Example 16], for which the MIC is 3.1 µg/mL (≈ 3.66 µM) in assay [1]; 1.56 µg/mL (≈ 1.84 µM) in assay [2]; 1.56 µg/mL (≈ 1.84 µM) in the assay on Staphylococcus aureus 45; 50 µg/mL (≈ 59.1 µM) in [3]; 1.56 µg/mL (≈ 1.84 µM) in the assay with Escherichia coli SS; 1.56 µg/mL (≈ 1.84 µM) in [4]. Moreover, the MIC in assay [5] (S. aureus CMX 686B, Brain Heart Infusion agar, 20-24 hours, read-out: MIC) was 1.56 µg/mL (≈ 1.84 µM); in assay [6] it was 1.56 µg/mL (≈ 1.84 µM); in [7], 0.1 µg/mL (≈ 0.118 µM); with Escherichia coli Juhl, above 100 µg/mL; in assay [8] (S. aureus CMX 503A, Brain Heart Infusion agar, 20-24 hours, read-out: MIC), 1.56 µg/mL (≈ 1.84 µM); in the assay with Escherichia coli DC-2 it was above 100 µg/mL. The MIC is 0.2 µg/mL (≈ 0.236 µM) in assay [9] (ATCC9341, read-out: MIC); above 100 µg/mL in assay [10] (930CONST); 50 µg/mL (≈ 59.1 µM) in the assay on Escherichia coli H560 (H560); 0.78 µg/mL (≈ 0.922 µM) in assay [11]; 50 µg/mL (≈ 59.1 µM) in assay [12]; 1.56 µg/mL (≈ 1.84 µM) in assay [13]. In addition, the figures for the MIC in [14] and in assay [15] were 0.39 µg/mL (≈ 0.461 µM) and 0.1 µg/mL (≈ 0.118 µM), respectively.
